# Measurements as given in US20100285959A1, “HERBICIDAL MIXTURES” (priority 2006, published 2010).
# Assays:
# winter barley (HORVW) = experiment: Test 24 growth chamber, postemergence; type: in vivo, Hordeum vulgare; conditions: 17 DAA
# Method: Plants were treated postemergence at the 2-4 leaf growth stage, and each treatment was replicated three times. […] Plants were watered as needed. […] Results for barley and wheat are the means across varieties of the three replicates, and results for the weeds are the means of the three replicates.
# corn (ZEAMD) [1] = experiment: Test 31 field trial, corn hybrids at V4 growth stage; type: in vivo, Zea mays ssp. indentata; conditions: postemergence, 14 DAA; for 34A15 Obs: corn hybrid 34A15; for 34N43 Obs: corn hybrid 34N43; for 35D28 Obs: corn hybrid 35D28; for 3730 Obs: corn hybrid 3730
# Description: Corn seeds of hybrids Pioneer ‘34A15’, ‘34N43’, ‘35D28’, and ‘3730’ were planted in mid-spring season, approximately 3.8 cm deep in a sandy loam soil having 3.8% organic matter and a pH of 6.5. Plots were 9.1 m long by 3.0 m wide with rows spaced 76 cm apart. Seeds were spaced approximately 18 cm apart within the rows. The field was managed using conventional tillage practices. Plots were arranged with hybrid as the main block and herbicide treatments randomized within each block. Treatments were applied to corn in the V4 growth stage using a backpack sprayer delivering a spray volume of 131 L/ha with a pressure of 221 kPa. Treatments consisted of Compound 2 alone and in combination with a premix formulation of foramsulfuron and isoxadifen-ethyl, dissolved or suspended in water containing the spray adjuvants ammonium sulfate, applied at 1 kg/Ha, and methylated seed oil, applied at 1% vol/vol. Effects on the treated corn plants and untreated controls were recorded 14 days after application.
# common ragweed (AMBEL) = experiment: Test 25 field trial, postemergence, growth as percent of control; type: in vivo, Ambrosia artemisiifolia
# Description: (§1) Corn seeds (hybrid ‘Pioneer 31G96 RR’) were planted in mid spring season, 3.8 cm deep in a clay loam soil having 2% organic matter and a pH of 6.6. Plots were 6.1 m long by 3.0 m wide with rows spaced 76 cm apart. Seeds were spaced 15 cm apart within the rows. The field was managed using conventional tillage practices. […] Giant ragweed and Pennsylvania smartweed could only be evaluated 14 days after application. […] Results are the means of the three replicates. This growth inhibition data was converted to results in the form of “plant growth as a percent of control plant growth” using the calculation “100 minus growth inhibition”.
# (§2) When this form of Colby's Equation is used, if the observed effects on weeds are less than the expected values, the mixture is synergistic.
# [2] = tested on: ivyleaf morningglory (IPOHE); experiment: Test 28 greenhouse, postemergence; type: in vivo, Ipomoea hederacea; conditions: 26 DAA
# Method: (§3) A greenhouse test was conducted to evaluate the effects on the plant species corn (ZEAMD, Zea mays ssp. indentata), sorghum (SORVU, Sorghum vulgare L.), dry-seeded rice (ORYSA, Oryza sativa L.), wheat (TRZAW, Triticum aestivum L.), ivyleaf morningglory (IPOHE, Ipomoea hederacea (L.) JACQ.), and barnyardgrass (ECHCG, Echinochloa crus-galli (L.) P. BEAUV.), of mixtures of Compound 2 with isoxadifen-ethyl. Corn, sorghum, rice, wheat, ivyleaf morningglory and barnyardgrass seeds were planted in RediEarth, a commercial potting medium. […] Corn plants were treated postemergence at the V2 growth stage, and sorghum, rice, wheat, ivyleaf morningglory, and barnyardgrass plants were treated postemergence at the 3-leaf stage. […] Each treatment was replicated three times. […] Plants were watered as needed.
# giant ragweed (AMBTR) = experiment: Test 26 field trial, postemergence; type: in vivo, Ambrosia trifida
# Description: Corn seeds (hybrid ‘Pioneer 31G96’) were planted in mid spring season, 3.8 cm deep in a silt loam soil having 2% organic matter and a pH of 6.6. Plots were 6.1 m long by 3.0 m wide with rows spaced 76 cm apart. Seeds were spaced 15 cm apart within the rows. The field was managed using conventional tillage practices. […] All treatments also included a surfactant. […] Some of the weed species could not be evaluated at every timing. […] Results are the means of the three replicates.
# [3] = tested on: Pennsylvania smartweed (POLPY); experiment: Test 25 field trial, postemergence, growth as percent of control; type: in vivo, Polygonum pensylvanicum; conditions: 14 DAA
# Description: as §1, §2
# corn (ZEAMD) [4] = experiment: Test 28 greenhouse, post- and preemergence; type: in vivo, Zea mays ssp. indentata; design: scale not given here; conditions: 26 DAA
# Method: as §3
# corn (ZEAMD) [5] = experiment: Test 25 field trial, postemergence, growth as percent of control; type: in vivo, Zea mays ssp. indentata; conditions: hybrid Pioneer 31G96 RR, Zea mays ssp. indentata (corn), in vivo
# Description: as §1, §2
# kochia (KCHSC) = experiment: Test 4 field trial, postemergence; type: in vivo, Kochia scoparia
# Method: A field trial was conducted to evaluate the effects of mixtures of Compound 2 with commercial herbicides on spring wheat (TRZAS, Triticum aestivum L.) and several weed species. Wheat seeds (cv. ‘AC Intrepid’) were planted in late spring season, 3.8 cm deep in a loam soil having 2.7% organic matter and a pH of 7. Plots were 6 m long by 2.5 m wide. The field was managed using no-till practices. The plots were arranged in a randomized complete block design with each treatment being replicated four times. Treatments were applied postemergence 25 days after planting using a backpack sprayer delivering a spray volume of 55 L/ha using a pressure of 276 kPa. […] Compound 2 and clodinafop treatments, alone and in combination, also included a surfactant. Weed species present in the experimental plots in sufficient quantity to be evaluated included wild oat (AVEFA, Avena fatua L.), common lambsquarters (CHEAL, Chenopodium album L.), kochia (KCHSC, Kochia scoparia (L.) Schrad.), wild buckwheat (POLCO, Polygonum convolvulus L.), Russian thistle (SASKR, Salsola kali L. ssp. ruthenica (Iljin) Soo), and field pennycress (THLAR, Thlaspi arvense L.). […] Common lambsquarters was evaluated only at 14 days after application. […] Results are the means of the four replicates.
compound,measurement,setting,value
"COC(=O)c1nc(C2CC2)nc(N)c1Cl [Compound 2, methyl 6-amino-5-chloro-2-cyclopropyl-4-pyrimidinecarboxylate]",HORVW Obs (scale 0 to 100),winter barley (HORVW); Cpd 2 4 g a.i./ha,19
same,HORVW Obs (scale 0 to 100),winter barley (HORVW); Cpd 2 8 g a.i./ha,28
same,HORVW Obs (scale 0 to 100),winter barley (HORVW); Cpd 2 16 g a.i./ha,37
same,34A15 Obs,corn (ZEAMD) [1]; Cpd 2 30 g a.i./ha,25
same,34A15 Obs,corn (ZEAMD) [1]; Cpd 2 60 g a.i./ha,30
same,34N43 Obs,corn (ZEAMD) [1]; Cpd 2 30 g a.i./ha,15%
same,34N43 Obs,corn (ZEAMD) [1]; Cpd 2 60 g a.i./ha,20%
same,35D28 Obs,corn (ZEAMD) [1]; Cpd 2 30 g a.i./ha,60
same,35D28 Obs,corn (ZEAMD) [1]; Cpd 2 60 g a.i./ha,65
same,3730 Obs,corn (ZEAMD) [1]; Cpd 2 30 g a.i./ha,60
same,3730 Obs,corn (ZEAMD) [1]; Cpd 2 60 g a.i./ha,75
same,AMBEL Obs (percent of control),"common ragweed (AMBEL); Cpd 2 15 g a.i./ha, 14 DAA",20%
same,AMBEL Obs (percent of control),"common ragweed (AMBEL); Cpd 2 15 g a.i./ha, 28 DAA",16%
same,AMBEL Obs (percent of control),"common ragweed (AMBEL); Cpd 2 15 g a.i./ha, 56 DAA",0%
same,AMBEL Obs (percent of control),"common ragweed (AMBEL); Cpd 2 30 g a.i./ha, 14 DAA",22%
same,AMBEL Obs (percent of control),"common ragweed (AMBEL); Cpd 2 30 g a.i./ha, 28 DAA",12%
same,AMBEL Obs (percent of control),"common ragweed (AMBEL); Cpd 2 30 g a.i./ha, 56 DAA",0%
same,AMBEL Obs (percent of control),"common ragweed (AMBEL); Cpd 2 45 g a.i./ha, 14 DAA",12%
same,AMBEL Obs (percent of control),"common ragweed (AMBEL); Cpd 2 45 g a.i./ha, 28 DAA",8%
same,AMBEL Obs (percent of control),"common ragweed (AMBEL); Cpd 2 45 g a.i./ha, 56 DAA",0%
same,IPOHE Obs,[2]; Cpd 2 32 g a.i./ha,100
same,IPOHE Obs,[2]; Cpd 2 64 g a.i./ha,100
same,AMBTR Obs,"giant ragweed (AMBTR); 14 DAA, 30 g a.i./ha",97
same,AMBTR Obs,"giant ragweed (AMBTR); 28 DAA, 30 g a.i./ha",100
same,AMBTR Obs,"giant ragweed (AMBTR); 28 DAA, 45 g a.i./ha",100
same,AMBTR Obs,"giant ragweed (AMBTR); 28 DAA, 60 g a.i./ha",100
same,POLPY Obs (percent of control),[3]; Cpd 2 15 g a.i./ha,95%
same,POLPY Obs (percent of control),[3]; Cpd 2 30 g a.i./ha,55%
same,POLPY Obs (percent of control),[3]; Cpd 2 45 g a.i./ha,65%
same,ZEAMD Obs,"corn (ZEAMD) [4]; postemergence, Cpd 2 32 g a.i./ha",27
same,ZEAMD Obs,"corn (ZEAMD) [4]; postemergence, Cpd 2 64 g a.i./ha",50
same,ZEAMD Obs,"corn (ZEAMD) [4]; preemergence, Cpd 2 32 g a.i./ha",7
same,ZEAMD Obs,"corn (ZEAMD) [4]; preemergence, Cpd 2 64 g a.i./ha",7
same,ZEAMD Obs (percent of control),corn (ZEAMD) [5]; 14 days after application,100%
same,ZEAMD Obs (percent of control),corn (ZEAMD) [5]; 56 days after application,100%
same,KCHSC Obs,"kochia (KCHSC); 14 DAA, Cpd 2 30 g a.i./ha alone or with clodinafop 56 or fenoxaprop 90",95
same,KCHSC Obs,"kochia (KCHSC); 35 DAA, Cpd 2 30 g a.i./ha alone or with clodinafop 56 or fenoxaprop 90",99
same,KCHSC Obs,"kochia (KCHSC); 35 DAA, Cpd 2 60 g a.i./ha alone",96
